The values that follow come from US20100298370A1, “BENZOTHIAZOLYL THIENOPYRIDINE DERIVATIVES AND USES THEREOF” (priority 2006, published 2010).

The assay has as its target T1, VEGF binding to heparin (HS-GAG) (Homo sapiens, UniProt P15692).
T1 construct: purchased Research and Development Systems
T1 sequence (P15692 27-191 isoform P15692-4): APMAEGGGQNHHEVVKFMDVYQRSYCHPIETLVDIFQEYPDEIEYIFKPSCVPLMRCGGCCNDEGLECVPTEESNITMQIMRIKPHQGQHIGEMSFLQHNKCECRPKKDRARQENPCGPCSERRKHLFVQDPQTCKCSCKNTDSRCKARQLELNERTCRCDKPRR
The experiment in a line: In vitro VEGF to HS-GAG binding assay (ELISA, heparin-BSA coated plate). From the text: An in vitro assay was used to assess the ability of test compounds of general formulas I and II to inhibit the interaction of VEGF with HS-GAGs. The assay was designed to for determine the concentration required for 50% inhibition (IC-50) for each specific compound. The test compounds were purchased from Life Chemicals Ltd. (Kiev, Ukraine), and the GAG used was heparin (heparin grade I-A; Sigma) conjugated to bovine serum albumin (Sigma) and diluted 1:200 in phosphate-buffered saline (PBS; pH 7.3). The heparin was added to a 96-well polystyrene ELISA plate (NUNC; 0.1 ml per well) and incubated overnight at 4° C. Following the incubation, the plate was washed thoroughly, by immersion, with de-ionized water and then with PBS (pH 7.3) containing Tween 20 (Sigma, 0.05%). The ELISA plate was then blocked with BSA (ICN, 3%, 200 μl per well) for 1 hour at room temperature. Following blocking, the plate was washed with de-ionized water, and then twice with PBS (pH 7.3) containing Tween 20. Recombinant human VEGF (Research and Development Systems) dissolved in PBS supplemented with BSA (0.1%) was added to the ELISA plate. The test compounds were dissolved in DMSO (MERCK), diluted in PBS and added to the wells at concentrations ranging from 0.01 to 200 μM to obtain a final volume 100 μl per well, and incubated for 60 minutes at room temperature with shaking. Following incubation, the plate was washed with de-ionized water and PBS (pH 7.3) containing Tween 20. Anti-human VEGF (1:2000; Research and Development Systems) diluted in PBS supplemented with BSA (1%) was added to the ELISA plate (100 per well) and incubated for 60 minutes at room temperature with shaking. Following incubation, the plate was washed with de-ionized water and then with PBS (pH 7.3) containing Tween 20. Streptavidin-HRP (1:200; Research and Development Systems Cat. No. DY998) diluted in PBS supplemented with BSA (1%) was added to the ELISA plate (100 per well) and incubated for 20 minutes at room temperature with shaking. The plate was then washed with de-ionized water and twice with PBS (pH 7.3) containing Tween 20. The peroxidase substrate chromogen tetramethyl benzidine (TMB; Dako) was added (100 μl per well) to the ELISA plate and incubated at room temperature. After 15 minutes, ELISA Stop Solution (hydrochloric acid 1N, sulfuric acid 3N) was added (100 μl per well) to stop the peroxidase catalyzed colorimetric reaction. The Optical Density (OD) of the samples was measured at 450 nm using an ELISA plate reader (Dynatech MR5000). Data were analyzed with Graphpad Prism software and IC-50 values were determined.
Percent inhibition at 30 μM concentration is shown and for selected compounds IC-50 was established.

The IC50 is the concentration at which inhibition is half-maximal. Higher therefore signals a need for much substance. A word on the inhibition: it is the drop in the measured response relative to a control, in per cent. Low values mean a weak effect, high ones a strong effect.

In turn, `CC(=O)c1ccc(C(=O)Nc2sc3c(c2-c2nc4ccccc4s2)CCN(Cc2ccccc2)C3)cc1` [Compound 8, N-[3-(2-benzothiazolyl)-4,5,6,7-tetrahydro-6-phenylmethylthieno[2,3-c]pyridin-2-yl]-4-acetylbenzamide] came in with an IC50 of 400 nM and an inhibition at 30 µM of 82%. On the same counts, the results for `CCN1CCc2c(sc(NC(=O)c3ccccc3)c2-c2nc3ccccc3s2)C1` [Compound 9, N-[3-(2-benzothiazolyl)-4,5,6,7-tetrahydro-6-ethylthieno[2,3-c]pyridin-2-yl]-benzamide] are 500 nM and 70%. Take `CCN1CCc2c(sc(NC(=O)c3ccc(Cl)cc3)c2-c2nc3ccccc3s2)C1` [Compound 10, N-[3-(2-benzothiazolyl)-4,5,6,7-tetrahydro-6-ethylthieno[2,3-c]pyridin-2-yl]-(4-chloro)benzamide]: the inhibition at 30 µM is 71%.

As for `CCN1CCc2c(sc(NC(=O)c3ccc(OC)cc3)c2-c2nc3ccccc3s2)C1` [Compound 11, N-[3-(2-benzothiazolyl)-4,5,6,7-tetrahydro-6-ethylthieno[2,3-c]pyridin-2-yl]-4-methoxybenzamide], the inhibition at 30 µM was found to be 41%.

Consider `CN1CCc2c(sc(NC(=O)CCSc3ccc(F)cc3)c2-c2nc3ccccc3s2)C1` [Compound 12, N-[3-(2-benzothiazolyl)-4,5,6,7-tetrahydro-6-methylthieno[2,3-c]pyridin-2-yl]-3-[(4-fluorophenyl)thio]propanamide], for which the inhibition at 30 µM was 62%.

With `COc1ccc(C(=O)Nc2sc3c(c2-c2nc4ccccc4s2)CCN(Cc2ccccc2)C3)c(OC)c1` [Compound 13, N-[3-(2-benzothiazolyl)-4,5,6,7-tetrahydro-6-phenylmethylthieno[2,3-c]pyridin-2-yl]-(2,4-dimethoxy)benzamide], the inhibition at 30 µM worked out at 64%.

The compound `CCN1CCc2c(sc(NC(=O)c3cc(OC)c(OC)c(OC)c3)c2-c2nc3ccccc3s2)C1` [Compound 14, N-[3-(2-benzothiazolyl)-4,5,6,7-tetrahydro-6-ethylthieno[2,3-c]pyridin-2-yl]-(3,4,5-trimethoxy)benzamide] had an IC50 of 200 nM and an inhibition at 30 µM of 73%. `COc1cc2ccccc2cc1C(=O)Nc1sc2c(c1-c1nc3ccccc3s1)CCN(C)C2` [Compound 15, N-[3-(2-benzothiazolyl)-4,5,6,7-tetrahydro-6-methylthieno[2,3-c]pyridin-2-yl]-3-methoxy-2-naphthalenecarboxamide]: the inhibition at 30 µM worked out at 43%. Still for that read-out and setting: for `CN1CCc2c(sc(NC(=O)c3cccc(C(F)(F)F)c3)c2-c2nc3ccccc3s2)C1` [Compound 16, N-[3-(2-benzothiazolyl)-4,5,6,7-tetrahydro-6-methylthieno[2,3-c]pyridin-2-yl]-3-trifluoromethylbenzamide] the value was 61%. With `CCN1CCc2c(sc(NC(=O)c3cccc(N4C(=O)CCC4=O)c3)c2-c2nc3ccccc3s2)C1` [Compound 17, N-[3-(2-benzothiazolyl)-4,5,6,7-tetrahydro-6-ethylthieno[2,3-c]pyridin-2-yl]-3-(2,5-dioxo-1-pyrrolidinyl)benzamide], the IC50 worked out at 300 nM and the inhibition at 30 µM was found to be 77%. As for `CC(C)N1CCc2c(sc(NC(=O)CCc3ccccc3)c2-c2nc3ccccc3s2)C1` [Compound 18, N-[3-(2-benzothiazolyl)-4,5,6,7-tetrahydro-6-(1-methylethyl)thieno[2,3-c]pyridin-2-yl]-3-benzenepropaneamide], 30 µM produced 44% inhibition. Still for that read-out and setting: for `CC(C)Oc1ccc(C(=O)Nc2sc3c(c2-c2nc4ccccc4s2)CCN(C)C3)cc1` [Compound 19, N-[3-(2-benzothiazolyl)-4,5,6,7-tetrahydro-6-methylthieno[2,3-c]pyridin-2-yl]-4-(1-methylethoxy)benzamide] the value was 49%. `COC(=O)c1ccc(C(=O)Nc2sc3c(c2-c2nc4ccccc4s2)CCN(C(C)C)C3)cc1` [Compound 20]: the IC50 amounted to 240 nM and at 30 µM the inhibition was 77%. On the same counts, the results for `CC(C)(C)C(=O)Nc1sc2c(c1-c1nc3ccccc3s1)CCN(Cc1ccccc1)C2` [Compound 21, N-[3-(2-benzothiazolyl)-4,5,6,7-tetrahydro-6-phenylmethyllthieno[2,3-c]pyridin-2-yl]-2,2-dimethylpropaneamide] are 900 nM and 79%. `O=C(Nc1sc2c(c1-c1nc3ccccc3s1)CCN(Cc1ccccc1)C2)c1cc(Cl)sc1Cl` [Compound 22, N-[3-(2-benzothiazolyl)-4,5,6,7-tetrahydro-6-phenylmethylthieno[2,3-c]pyridin-2-yl]-3-(2,5-dichloro)thiophenecarboxamide] displayed an inhibition at 30 µM of 39%. Still for that read-out and setting: for `O=C(Nc1sc2c(c1-c1nc3ccccc3s1)CCN(Cc1ccccc1)C2)c1cccs1` [Compound 23, N-[3-(2-benzothiazolyl)-4,5,6,7-tetrahydro-6-phenylmethylthieno[2,3-c]pyridin-2-yl]-2-thiophenecarboxamide] the value was 57%. Same read-out and setting: for `O=C(Nc1sc2c(c1-c1nc3ccccc3s1)CCN(Cc1ccccc1)C2)c1ccc(Br)s1` [Compound 24, N-[3-(2-benzothiazolyl)-4,5,6,7-tetrahydro-6-phenylmethylthieno[2,3-c]pyridin-2-yl]-2-(5-bromo)thiophenecarboxamide] the value was 52%.

Turning to `CN1CCc2c(sc(NC(=O)c3ccco3)c2-c2nc3ccccc3s2)C1` [Compound 25, N-[3-(2-benzothiazolyl)-4,5,6,7-tetrahydro-6-methylthieno[2,3-c]pyridin-2-yl]-2-furancarboxamide], the inhibition at 30 µM turned out to be 55%.

For `CC(C)N1CCc2c(sc(NC(=O)C3CCCCC3)c2-c2nc3ccccc3s2)C1` [Compound 26, N-[3-(2-benzothiazolyl)-4,5,6,7-tetrahydro-6-(1-methylethyl)thieno[2,3-c]pyridin-2-yl]-cyclohexylcarboxamide], the inhibition at 30 µM was 36%. Still for that read-out and setting: for `O=C(COc1ccc(Cl)cc1)Nc1sc2c(c1-c1nc3ccccc3s1)CCN(Cc1ccccc1)C2` [Compound 27, N-[3-(2-benzothiazolyl)-4,5,6,7-3-tetrahydro-6-phenylmethylthieno[2,3-c]pyridin-2-yl]-2-(4-chlorophenoxy)acetamide] the value was 55%; for `CCN1CCc2c(sc(NC(=O)c3cc4cc([N+](=O)[O-])ccc4s3)c2-c2nc3ccccc3s2)C1` [Compound 28, N-[3-(2-benzothiazolyl)-4,5,6,7-tetrahydro-6-ethylthieno[2,3-c]pyridin-2-yl]-benzo[b]thiophene-5-nitro-2-carboxamide], 35%. In turn, `CCN1CCc2c(sc(NC(=O)CCSc3ccccc3)c2-c2nc3ccccc3s2)C1` [Compound 29, N-[3-(2-benzothiazolyl)-4,5,6,7-tetrahydro-6-ethylthieno[2,3-c]pyridin-2-yl]-3-(phenylthio)propanamide] gave an IC50 of 1300 nM and an inhibition at 30 µM of 72%. Consider `CN1CCc2c(sc(NC(=O)CN3C(=O)c4ccccc4C3=O)c2-c2nc3ccccc3s2)C1` [Compound 30, N-[3-(2-benzothiazolyl)-4,5,6,7-tetrahydro-6-methylthieno[2,3-c]pyridin-2-yl]-1,3-dihydro-1,3-dioxo-2H-isoindole-2-acetamide], for which the inhibition at 30 µM amounted to 29%.

In turn, `CC(C)N1CCc2c(sc(NC(=O)CN3C(=O)CCC3=O)c2-c2nc3ccccc3s2)C1` [Compound 31, N-[3-(2-benzothiazolyl)-4,5,6,7-tetrahydro-6-(methylethyl)thieno[2,3-c]pyridin-2-yl]-(2,5-dioxo-1-pyrrolidine)acetamide] came in with an inhibition at 30 µM of 37%. The compound `CN1CCc2c(sc(NC(=O)c3cc4c(ccc5ccccc54)oc3=O)c2-c2nc3ccccc3s2)C1` [Compound 32, N-[3-(2-benzothiazolyl)-4,5,6,7-tetrahydro-6-methylthieno[2,3-c]pyridin-2-yl]-3-oxo-3H-naphtho[2,1-b]pyran-2-carboxamide] displayed an inhibition at 30 µM of 31%.
